Tests used:
[1] = in vivo; cited from earlier work
[2] = Solubility of rofecoxib in solvent systems containing one solvent, UV spectrophotometry; assay type: physicochemical
Procedure: The solubility of rofecoxib was tested in a variety of solvent systems by UV spectrophotometry. A UV spectrophotometry method of evaluating the solubility of rofecoxib was used to determine the solubility of rofecoxib in various solvent systems. Erk et al. describes this method and is incorporated by reference herein in its entirety: Erk et al. Pharmazie. 2004 June; 59(6):453-6.
100 mg of rofecoxib was dissolved in 100 ml of methanol. Dilutions of the stock solution were made into methanol to give a final rofecoxib concentration of 5 μg/ml, 10 μg/ml, 20 μg/ml, 25 μg/ml, 30 μg/ml, 35 μg/ml, 40 μg/ml, 45 μg/ml, and 50 μg/ml. A UV spectrophotometer was utilized to read the absorbance of the samples 279.1 nm. Using Beer's law, a value for the extinction coefficient for rofecoxib was obtained. The value of the extinction coefficient of rofecoxib was determined to be 29.06 and was utilized in future experiments to determine the concentration of rofecoxib in various solvent systems.
100 mg of rofecoxib was added to 1 gram of each solvent. […] The mixtures of rofecoxib and solvents were vortexed for one minute and left at room temperature for one hour. The mixture was vortexed a second time and then left at room temperature overnight. The next morning the samples were vortexed a third time and then centrifuged at 12 k for 5 minutes. The excipient/rofecoxib mixture was transferred to a new tube being careful to not take any of the pellet. Serial dilutions of the rofecoxib solvent solutions were made (1:100 v:v), (1:1000 v/v), and (1:2000 v/v). Solvents without rofecoxib were diluted with methanol and used to blank a Beckman DU-7400 spectrophotometer. The absorbance of the samples was determined at a wavelength of 279.1 nm. The concentration of rofecoxib dissolved in the solvent was calculated using Beer's Law. Concentrations were converted from units of mg/mL to units of mg/g according to the following procedure:
(a) The volume of 1 g of solvent times the calculated mg/ml rofecoxib equals total mg of rofecoxib in 1 g of solvent. e.g. 1 g of a solvent that has a density of 1.05 g/mL is 952 μL. A rofecoxib solution with a concentration of rofecoxib of […] contains 28.17 mg of rofecoxib in 952 μL of solvent.
(b) To calculate the total volume, a mg of rofecoxib is assumed to equal to 1 μl of volume. Add volume of the solvent to the total weight of rofecoxib. 28.17 mg+1000 mg of solvent=1028.17 mg.
(c) To calculate the w/w divide the mg of rofecoxib 28.71 mg by the total weight of rofecoxib with solvent 1028.71 mg and multiply times 1000 mg to get the w/w […]/1028.71 mg*1000 mg=28.62 mg/g of solvent.

[3] = Solubility of rofecoxib in various solvents by High Performance Liquid Chromatography; assay type: physicochemical
[4] = Stability of rofecoxib by HPLC after storage for two weeks at 40° C. and 50° C.; assay type: physicochemical
Procedure: The stability of rofecoxib was assessed by HPLC after storage for two weeks at 40° C. and for two weeks at 50° C.

In the case of CS(=O)(=O)c1ccc(C2=C(c3ccccc3)C(=O)OC2)cc1 [Rofecoxib], the half-life [1] is given as 17 h, the Solubility of Rofecoxib ([2]; in 2-Methylpentane-2,4-diol) is given as 0.59 mg/g and the Solubility of Rofecoxib ([2]; in Acetone) is given as 23.58 mg/g. The Solubility of Rofecoxib ([2]; in Benzyl Alcohol) was 19.54 mg/g, the Solubility of Rofecoxib ([2]; in Diethyl sebacate) was 1.3 mg/g and the Solubility of Rofecoxib ([2]; in Diethylene glycol monoethyl ether) was 9.07 mg/g. The Solubility of Rofecoxib ([2]; in Diisopropyl adipate) was 2.04 mg/g, the Solubility of Rofecoxib ([2]; in Dimethyl Isosorbide) was 39.14 mg/g and the Solubility of Rofecoxib ([2]; in Dimethyl Sulfoxide) was 143.6 mg/g. For the same compound, the Solubility of Rofecoxib ([2]; in Ethyl acetate) was 5.5 mg/g, the Solubility of Rofecoxib ([2]; in Isopropyl tetradecanoate) was 0.0017 mg/g and the Solubility of Rofecoxib ([2]; in N-methyl-2-pyrrolidone) was 198 mg/g. The Solubility of Rofecoxib ([2]; in Oleic acid) was 0.402 mg/g, the Solubility of Rofecoxib ([2]; in Polyethylene glycol-400 (PEG)) was 13.14 mg/g and the Solubility of Rofecoxib ([2]; in Polysorbate 20 (PS20)) was 9.18 mg/g. For the same compound, the Solubility of Rofecoxib ([2]; in Polysorbate 80 (PS80)) was 9.71 mg/g, the Solubility of Rofecoxib ([2]; in Propylene Carbonate) was 49.43 mg/g and the Solubility of Rofecoxib ([2]; in Propylene Glycol) was 0.302 mg/g. For the same compound, the Solubility of Rofecoxib ([2]; in Propylene glycol diacetate) was 6.93 mg/g, the Solubility of Rofecoxib ([2]; in alpha-Terpineol 95.0+ %) was 0.313 mg/g and the “Solubility of Rofecoxib” value ([3]; in 1.25% Niacinamide (Aqueous), HPLC) was “No observable solubility”. The “Solubility of Rofecoxib” value ([3]; in 10% Sodium Lauryl Sulfate (Aqueous), HPLC) was “No observable solubility*”, the “Solubility of Rofecoxib” value ([3]; in Dehydrated Alcohol, HPLC) was “No observable solubility” and the “Solubility of Rofecoxib” value ([3]; in Diethyl Sebacate, HPLC) was “No observable solubility”. The “Solubility of Rofecoxib” value ([3]; in Diethylene Glycol Monoethyl Ether, HPLC) was 0.5-1.0 % w/w, the “Solubility of Rofecoxib” value ([3]; in Diisoproovl Adipate, HPLC) was “No observable solubility” and the “Solubility of Rofecoxib” value ([3]; in Dimethyl Isosorbide, HPLC) was 2.5-3.5% w/w. The “Solubility of Rofecoxib” value ([3]; in Ethyl Acetate, HPLC) was <0.5% w/w, the “Solubility of Rofecoxib” value ([3]; in Glycervl Monooleate, HPLC) was “No observable solubility” and the “Solubility of Rofecoxib” value ([3]; in Hydrochloric Acid (0.1 N), HPLC) was “No observable solubility”. The “Solubility of Rofecoxib” value ([3]; in Laureth-4, HPLC) was “No observable solubility”, the “Solubility of Rofecoxib” value ([3]; in Medium Chain Triglycerides, HPLC) was “No observable solubility” and the “Solubility of Rofecoxib” value ([3]; in N-Methvl-Pyrrolidone, HPLC) was 4.4-5.4 % w/w. For the same compound, the “Solubility of Rofecoxib” value ([3]; in Oleyl Alcohol, HPLC) was “No observable solubility”, the “Solubility of Rofecoxib” value ([3]; in PEG400, HPLC) was 1.0-1.5 % w/w and the “Solubility of Rofecoxib” value ([3]; in Polysorbate 80, HPLC) was “No observable solubility”. The “Solubility of Rofecoxib” value ([3]; in Propylene Carbonate, HPLC) was 3.4-4.3 % w/w, the “Solubility of Rofecoxib” value ([3]; in Propylene Glycol Diacetate, HPLC) was <0.5 % w/w and the “Solubility of Rofecoxib” value ([3]; in Sodium Hydroxide (0.1 N), HPLC) was “No observable solubility”. For the same compound, the “Solubility of Rofecoxib” value ([3]; in Sorbitol Solution, HPLC) was “No observable solubility”, the “Solubility of Rofecoxib” value ([3]; in Water pH 3, HPLC) was “No observable solubility” and the “Solubility of Rofecoxib” value ([3]; in Water pH 5.5, HPLC) was “No observable solubility”. For the same compound, the “Solubility of Rofecoxib” value ([3]; in Water pH 7.4, HPLC) was “No observable solubility”, the “Rofecoxib Concentration” value ([4]; Acetone, T = 0 weeks) was 2.549 % w/w and the “Rofecoxib Concentration” value ([4]; Acetone, T = 2 weeks 40° C. storage) was 2.549 % w/w. The “Rofecoxib Concentration” value ([4]; Acetone, T = 2 weeks 50° C. storage) was 2.549 % w/w, the “Rofecoxib Concentration” value ([4]; Benzyl alcohol, T = 0 weeks) was 1.447 % w/w and the “Rofecoxib Concentration” value ([4]; Benzyl alcohol, T = 2 weeks 40° C. storage) was 1.474 % w/w. For the same compound, the “Rofecoxib Concentration” value ([4]; Benzyl alcohol, T = 2 weeks 50° C. storage) was 1.470 % w/w, the “Rofecoxib Concentration” value ([4]; Diethylene glycol monoethyl ether, T = 0 weeks) was 0.687 % w/w and the “Rofecoxib Concentration” value ([4]; Diethylene glycol monoethyl ether, T = 2 weeks 40° C. storage) was 0.672 % w/w. The “Rofecoxib Concentration” value ([4]; Diethylene glycol monoethyl ether, T = 2 weeks 50° C. storage) was 0.677 % w/w, the “Rofecoxib Concentration” value ([4]; Dimethyl isosorbide, T = 0 weeks) was 2.641 % w/w and the “Rofecoxib Concentration” value ([4]; Dimethyl isosorbide, T = 2 weeks 40° C. storage) was 2.515 % w/w. The “Rofecoxib Concentration” value ([4]; Dimethyl isosorbide, T = 2 weeks 50° C. storage) was 2.511 % w/w, the “Rofecoxib Concentration” value ([4]; Ethyl acetate, T = 0 weeks) was 0.465 % w/w and the “Rofecoxib Concentration” value ([4]; Ethyl acetate, T = 2 weeks 40° C. storage) was 0.479 % w/w. For the same compound, the “Rofecoxib Concentration” value ([4]; Ethyl acetate, T = 2 weeks 50° C. storage) was 0.476 % w/w, the “Rofecoxib Concentration” value ([4]; N-methyl-2-pyrrolidone, T = 0 weeks) was 5.046 % w/w and the “Rofecoxib Concentration” value ([4]; N-methyl-2-pyrrolidone, T = 2 weeks 40° C. storage) was 5.057 % w/w. For the same compound, the “Rofecoxib Concentration” value ([4]; N-methyl-2-pyrrolidone, T = 2 weeks 50° C. storage) was 5.055 % w/w, the “Rofecoxib Concentration” value ([4]; PEG 400, T = 0 weeks) was 1.013 % w/w and the “Rofecoxib Concentration” value ([4]; PEG 400, T = 2 weeks 40° C. storage) was 0.987 % w/w. For the same compound, the “Rofecoxib Concentration” value ([4]; PEG 400, T = 2 weeks 50° C. storage) was 0.993 % w/w, the “Rofecoxib Concentration” value ([4]; Propylene Carbonate, T = 0 weeks) was 3.471 % w/w and the “Rofecoxib Concentration” value ([4]; Propylene Carbonate, T = 2 weeks 40° C. storage) was 3.456 % w/w. For the same compound, the “Rofecoxib Concentration” value ([4]; Propylene Carbonate, T = 2 weeks 50° C. storage) was 3.463 % w/w, the “Rofecoxib Concentration” value ([4]; Propylene Glycol Diacetate, T = 0 weeks) was 0.519 % w/w and the “Rofecoxib Concentration” value ([4]; Propylene Glycol Diacetate, T = 2 weeks 40° C. storage) was 0.527 % w/w. For the same compound, the “Rofecoxib Concentration” value ([4]; Propylene Glycol Diacetate, T = 2 weeks 50° C. storage) was 0.520 % w/w and the solubility after storage ([4]; two weeks at 40° C. and 50° C., in the solvents in Table 12) was “remained soluble”.

— US11260023B2, “Topical compositions containing rofecoxib and methods of making and using the same” (BRIORI BIOTECH, LLC, priority 2020, dated 2022)
